Assays:
Assay type in all cases: biochemical
[1] = biological target: T1, Sirtuin 6 (SIRT6) (Homo sapiens, UniProt Q8N6T7); experiment: HPLC deacetylation assay with H3K9Ac peptide (activation); immunoblot with core histones; Michaelis-Menten kinetics
T1 construct: recombinant GST-tagged human SIRT6

[2] = biological target: T2, SIRT3 (Homo sapiens, UniProt Q9NTG7); experiment: Fluor de Lys deacetylation assay, moderate inhibition at […]
T2 sequence (Q9NTG7 102-399): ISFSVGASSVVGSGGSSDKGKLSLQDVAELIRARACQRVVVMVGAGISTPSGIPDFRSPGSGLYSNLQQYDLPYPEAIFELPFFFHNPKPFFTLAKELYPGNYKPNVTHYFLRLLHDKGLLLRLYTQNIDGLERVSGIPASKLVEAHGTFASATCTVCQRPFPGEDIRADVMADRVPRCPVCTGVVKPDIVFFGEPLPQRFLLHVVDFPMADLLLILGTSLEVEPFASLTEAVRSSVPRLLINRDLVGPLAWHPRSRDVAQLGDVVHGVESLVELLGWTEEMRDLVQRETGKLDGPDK

[3] = biological target: T3, SIRT1 (Homo sapiens, UniProt Q96EB6); experiment: as above
T3 sequence (Q96EB6 2-747): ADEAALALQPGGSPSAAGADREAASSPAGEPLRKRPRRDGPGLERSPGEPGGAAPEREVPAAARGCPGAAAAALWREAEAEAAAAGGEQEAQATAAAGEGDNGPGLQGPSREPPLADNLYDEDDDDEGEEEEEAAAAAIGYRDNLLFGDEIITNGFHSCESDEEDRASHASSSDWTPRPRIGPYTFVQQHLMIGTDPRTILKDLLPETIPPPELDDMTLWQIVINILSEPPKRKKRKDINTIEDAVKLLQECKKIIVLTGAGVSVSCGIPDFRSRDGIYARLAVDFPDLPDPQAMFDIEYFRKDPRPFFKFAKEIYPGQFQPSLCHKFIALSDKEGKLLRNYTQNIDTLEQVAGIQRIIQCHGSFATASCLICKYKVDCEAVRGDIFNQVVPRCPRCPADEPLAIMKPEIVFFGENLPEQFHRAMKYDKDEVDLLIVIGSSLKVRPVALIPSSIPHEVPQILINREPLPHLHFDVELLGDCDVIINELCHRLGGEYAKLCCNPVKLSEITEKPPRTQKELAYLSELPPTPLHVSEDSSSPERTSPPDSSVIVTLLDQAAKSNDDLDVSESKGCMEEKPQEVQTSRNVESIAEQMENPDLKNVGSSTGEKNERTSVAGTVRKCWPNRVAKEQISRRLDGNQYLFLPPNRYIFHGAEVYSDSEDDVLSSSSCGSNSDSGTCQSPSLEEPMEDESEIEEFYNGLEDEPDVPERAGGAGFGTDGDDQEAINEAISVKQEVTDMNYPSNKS

[4] = biological target: T4, SIRT2 (Homo sapiens, UniProt Q8IXJ6); experiment: Fluor de Lys deacetylation assay, inhibition at […]
T4 sequence (Q8IXJ6 2-389): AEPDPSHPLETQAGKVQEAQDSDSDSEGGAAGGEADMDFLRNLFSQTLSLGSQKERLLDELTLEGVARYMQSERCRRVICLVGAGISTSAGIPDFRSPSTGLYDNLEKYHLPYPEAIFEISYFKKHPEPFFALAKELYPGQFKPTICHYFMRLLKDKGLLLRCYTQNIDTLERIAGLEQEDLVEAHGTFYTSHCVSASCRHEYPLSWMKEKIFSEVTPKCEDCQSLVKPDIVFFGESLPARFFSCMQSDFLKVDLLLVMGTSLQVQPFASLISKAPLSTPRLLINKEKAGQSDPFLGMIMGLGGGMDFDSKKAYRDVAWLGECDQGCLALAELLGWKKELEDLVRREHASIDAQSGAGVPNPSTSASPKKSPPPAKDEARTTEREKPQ

[5] = biological target: T1, Sirtuin 6 (SIRT6); experiment: HPLC deacetylation assay with H3K9Ac peptide (activation); immunoblot with core histones

T1 sequence (Q8N6T7 2-355): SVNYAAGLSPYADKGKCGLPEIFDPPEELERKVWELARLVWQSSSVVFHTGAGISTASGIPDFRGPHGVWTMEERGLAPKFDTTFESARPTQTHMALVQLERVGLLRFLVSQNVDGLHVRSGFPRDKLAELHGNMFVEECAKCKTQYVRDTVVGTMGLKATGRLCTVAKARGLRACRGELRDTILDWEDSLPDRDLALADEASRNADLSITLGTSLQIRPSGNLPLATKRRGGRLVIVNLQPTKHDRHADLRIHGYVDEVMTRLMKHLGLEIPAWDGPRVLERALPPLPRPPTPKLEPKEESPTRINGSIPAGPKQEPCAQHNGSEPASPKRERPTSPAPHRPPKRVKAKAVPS

| EC50 [5] | SMILES | EC50 [1] | Fluor de Lys deacetylation assay, moderate inhibition at 100 μM [2] | Fluor de Lys deacetylation assay, moderate inhibition at 100 μM [3] | % [4] |
| --- | --- | --- | --- | --- | --- |
|  | O=c1oc2c(O)c(O)cc3c(=O)oc4c(O)c(O)cc1c4c23 [Ellagic acid] | 25 µM | Galloflavin and Ellagic acid displayed moderate inhibition against SIRT1 and SIRT3 | Galloflavin and Ellagic acid displayed moderate inhibition against SIRT1 and SIRT3 | up to 60 % inhibition at 100 μM |
| 79 µM | O=c1oc2c(cc1O)oc(=O)c1cc(O)c(O)c(O)c12 [Galloflavin] |  | Galloflavin and Ellagic acid displayed moderate inhibition against SIRT1 and SIRT3 | Galloflavin and Ellagic acid displayed moderate inhibition against SIRT1 and SIRT3 | up to 60 % inhibition at 100 μM |

From article PMC12036747, “Effects of galloflavin and ellagic acid on sirtuin 6 and its anti-tumorigenic activities” (Biomedicine & pharmacotherapy = Biomedecine & …, 2020)
